Data taken from the supplement of paper PMC5579334.

Columns and labels:
HS-PSS [1] = experiment: drug sensitivity score (DSS, CellTox-Green cytotoxicity, 72 h) (DSS (dimensionless)); higher = more cytotoxic; extreme values may be limits of the assay
Method in brief: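 MPNST cell lines and primary human Schwann cells were grown for 72 h at 37 °C in 384-well plates containing five 10-fold compound dilutions. CellTox-Green, added before seeding at a final 1:1000 dilution, gave fluorescence from DNA released by disrupted cells, and signals were scaled to vehicle and positive-control wells. Curves were fitted with a four-parameter logistic model. Drug sensitivity score and relative IC50 come from these fits, with IC50 censored at the top concentration.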

HS-Sch-2 [2] = experiment: % inhibition of CellTiter-Glo viability at highest tested concentration (72 h), relative to DMSO and benzethonium chloride controls; higher = more inhibition
Method in brief: (§1)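 Viability of MPNST cell lines and primary human Schwann cells was read as CellTiter-Glo ATP luminescence after 72 h at 37 °C, 5% CO2, in 384-well plates seeded with 750–1000 cells per well. Each compound had been preprinted at five concentrations in 10-fold steps. Signals were scaled between vehicle and positive-control wells, duplicates averaged where present, and fitted with four-parameter logistic curves. Drug sensitivity score and relative IC50 (censored at the top concentration) come from those fits, and percent inhibition is taken at the top concentration.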

YST-1 [3] = experiment: as above
Method in brief: as §1

HS-PSS [4] = experiment: as above
Method in brief: as §1

HS-Sch-2 [5] = experiment: drug sensitivity score (DSS, CellTiter-Glo viability, 72 h) (DSS (dimensionless)); higher = more sensitive; extreme values may be limits of the assay
Method in brief: as §1

YST-1 [6] = experiment: as above
Method in brief: as §1

HS-PSS [7] = experiment: as above
Method in brief: as §1

Compound | drug sensitivity score (HS-PSS [1]) | % inhibition (HS-Sch-2 [2]) | % inhibition (YST-1 [3]) | % inhibition (HS-PSS [4]) | drug sensitivity score (HS-Sch-2 [5]) | drug sensitivity score (YST-1 [6]) | drug sensitivity score (HS-PSS [7])
Cc1nc(NC(=O)N2CCC[C@H]2C(N)=O)sc1-c1ccnc(C(C)(C)C(F)(F)F)c1 [Alpelisib] (max concentration tested 2500 nM) | 0 | 21.2% | 63.6% | 13% | 1.18 | 7.32 | 0.35
CCN(CC)CCN(Cc1ccc(-c2ccc(C(F)(F)F)cc2)cc1)C(=O)Cn1c(SCc2ccc(F)cc2)nc(=O)c2c1CCC2 [Darapladib] (max concentration tested 1000 nM) | 3.71 | 33% | 19.5% | 53.3% | 2.38 | 1.09 | 3.85
COc1cccc2c1c(O)c(C(=O)N(C)c1ccc(C(F)(F)F)cc1)c(=O)n2C [Tasquinimod] (max concentration tested 10000 nM) | 0 | 8.66% | 20.7% | 11.8% | 0 | 3.88 | 0.69
CCNC(=O)Nc1ccc(-c2nc3c(c(N4CCOC[C@@H]4C)n2)CCN(C2COC2)C3)cc1 [RG-7603] (max concentration tested 2500 nM) | 0 | 33.8% | 56.2% | 32.4% | 3.02 | 6.56 | 1.5
C[C@@H](Nc1cc(F)cc(F)c1)c1cc(C(=O)N(C)C)cc2c(=O)cc(N3CCOCC3)oc12 [AZD-8186] (max concentration tested 1000 nM) | 0 | -0.99% | 28.9% | -3.47% | 0 | 1.06 | 0
N[C@@H](Cc1ccc(N(CCCl)CCCl)cc1)C(=O)O [Melphalan] (max concentration tested 12500 nM) | 0 | 7.23% | 3.44% | 3.32% | 0 | 0 | 0
C=CC(=O)Nc1cccc(Nc2nc(Nc3ccc(OCCOC)cc3)ncc2F)c1 [Spebrutinib] (max concentration tested 1000 nM) | 0 | 12.6% | 15.3% | 20.7% | 0.45 | 0.89 | 0.48
Cn1cc(C[C@@H](N)C(=O)O)c2ccccc21 [1-methyl-D-tryptophan] (max concentration tested 5000 nM) | 0 | 2.88% | -5.86% | 6.24% | 0 | 0 | 0
COc1cc(N2CCC(N3CCN(C)CC3)CC2)ccc1Nc1ncnc(Nc2ccccc2S(=O)(=O)C(C)C)n1 [ASP3026] (max concentration tested 10000 nM) | 0 | 4.73% | -4.61% | 2.45% | 0 | 0 | 0
COc1cc2c(Nc3ccc(Cl)c(Cl)c3F)ncnc2cc1OC[C@H]1C[C@@H]2CN(C)C[C@@H]2C1 [XL-647] (max concentration tested 1000 nM) | 0 | 31.1% | 26.5% | 30.7% | 1.16 | 1.63 | 0.99
Cc1[nH]c(/C=C2\C(=O)Nc3ccccc32)c(C)c1CCC(=O)O [Orantinib] (max concentration tested 10000 nM) | 20.3 | 0.75% | 20% | 15% | 0 | 0.72 | 0.29
CN(C)Cc1c(C(=O)NCCOc2ccc(C(=O)NO)cc2)oc2ccccc12 [Abexinostat] (max concentration tested 10000 nM) | 7.74 | 101% | 101% | 96.2% | 20.5 | 24.9 | 16.5
O=S(=O)(c1cccc2c(O)nccc12)N1CCCNCC1 [Hydroxyfasudil] (max concentration tested 37500 nM) | 0 | 21.6% | 12.7% | 19.5% | 1.47 | 0.03 | 1.21
N#CC(c1ccnc(OCc2ccc(CN3CCOCC3)cc2)n1)c1nc2ccccc2s1 (stereo unspecified) [Bentamapimod] (max concentration tested 10000 nM) | 1.1 | 58.6% | 26.9% | 75.6% | 3.69 | 2.11 | 6.75
Cc1cnc(Nc2ccc(OCCN3CCCC3)cc2)nc1Nc1cccc(S(=O)(=O)NC(C)(C)C)c1 [Fedratinib] (max concentration tested 10000 nM) | 3.87 | 102% | 87.1% | 96.5% | 10.8 | 8.29 | 9.41
CC[C@H](NC(=O)[C@H](C)NC)C(=O)N1C[C@@H](O)C[C@H]1Cc1c(-c2[nH]c3cc(F)ccc3c2C[C@@H]2C[C@H](O)CN2C(=O)[C@H](CC)NC(=O)[C@H](C)NC)[nH]c2cc(F)ccc12 [Birinapant] (max concentration tested 1000 nM) | 0 | 6.12% | 2.35% | 10.7% | 0 | 0 | 0
COc1cc(N2CCN(C)CC2)ccc1Nc1nccc(-c2cn(C)c3cnccc23)n1 [AZ191] (max concentration tested 10000 nM) | 1.42 | 95.6% | 76.4% | 80.5% | 5.07 | 3.96 | 5.3
N#CC1(c2ccc(NC(=O)c3cccnc3NCc3ccncc3)cc2)CCCC1 [Apatinib] (max concentration tested 10000 nM) | 0 | -2.67% | 18.9% | 11.6% | 0 | 1.19 | 0
